In the assay the target is T1, GlyT1 (Homo sapiens, UniProt P48067).
T1 construct: expressed in transfected cells
T1 sequence (P48067 1-706): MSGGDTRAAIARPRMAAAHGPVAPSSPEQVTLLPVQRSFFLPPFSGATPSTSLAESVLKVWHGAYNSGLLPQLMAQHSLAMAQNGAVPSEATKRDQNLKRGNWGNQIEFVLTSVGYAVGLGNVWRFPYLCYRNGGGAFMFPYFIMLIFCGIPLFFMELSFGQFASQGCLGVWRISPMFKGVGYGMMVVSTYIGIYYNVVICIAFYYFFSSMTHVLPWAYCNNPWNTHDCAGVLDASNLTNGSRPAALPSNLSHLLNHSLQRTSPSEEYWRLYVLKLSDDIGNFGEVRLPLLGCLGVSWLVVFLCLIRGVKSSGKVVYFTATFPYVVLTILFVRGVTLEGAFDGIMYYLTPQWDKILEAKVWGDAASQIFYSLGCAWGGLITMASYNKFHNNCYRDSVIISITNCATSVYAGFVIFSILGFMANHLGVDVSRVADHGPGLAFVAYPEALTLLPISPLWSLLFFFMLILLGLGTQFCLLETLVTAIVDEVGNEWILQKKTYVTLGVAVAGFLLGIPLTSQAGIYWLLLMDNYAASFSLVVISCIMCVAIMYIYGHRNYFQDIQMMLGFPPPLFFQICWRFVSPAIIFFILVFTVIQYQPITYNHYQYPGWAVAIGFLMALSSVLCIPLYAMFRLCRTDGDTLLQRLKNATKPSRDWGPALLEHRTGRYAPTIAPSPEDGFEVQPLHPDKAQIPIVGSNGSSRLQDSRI
The assay can be described thus: Glycine Transporter 1 (GlyT1) uptake assay, scintillation proximity assay of [14C]-glycine uptake. In kind it is cell-based. The settings on record: SPA, four parameter logistic fit, read-out: GlyT1 (pIC50) (converted). In a few lines: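 IC50 values derive from four-parameter logistic curves fitted to dose-response data. Uptake of [14C]-glycine measured in scintillation proximity format.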
Take `CS(=O)(=O)c1ccc(-c2ccccc2)c(C(=O)N2Cc3cn(-c4ccc(F)cn4)nc3C2)c1` [Example 566, 5-Fluoro-2-[5-(5-methanesulfonyl-2-phenylbenzoyl)-2H 4H 5H 6H-pyrrolo[3,4-c]pyrazol-2-yl]pyridine]: the IC50 is under 100 nM.
As to `CCS(=O)(=O)c1ccc(-c2ccccc2)c(C(=O)N2Cc3cn(-c4ccnc(C)c4)nc3C2)c1` [Example 567, 4-{5-[5-(Ethanesulfonyl)-2-phenylbenzoyl]-2H 4H 5H 6H-pyrrolo[3,4-c]pyrazol-2-yl}-2-methylpyridine], the IC50 was under 100 nM.
On to `CCS(=O)(=O)c1ccc(-c2cccc(F)c2)c(C(=O)N2Cc3cn(-c4ccnc(C)c4)nc3C2)c1` [Example 568], for which the IC50 was under 100 nM.
The figure for `CCS(=O)(=O)c1ccc(-c2cc(F)cc(F)c2)c(C(=O)N2Cc3cn(-c4ccnc(C)c4)nc3C2)c1` [Example 569, 4-{5-[2-(3 5-Difluorophenyl)-5-(ethanesulfonyl)benzoyl]-2H 4H 5H 6H-pyrrolo[3,4-c]pyrazol-2-yl}-2-methylpyridine] is under 100 nM.
With `CCS(=O)(=O)c1ccc(-c2ccccc2)c(C(=O)N2Cc3cn(-c4cncc(F)c4)nc3C2)c1` [Example 570, 3-{5[5-(Ethanesulfonyl)-2-phenylbenzoyl]-2H 4H 5H 6H-pyrrolo[3,4-c]pyrazol-2-yl}-5-fluoropyridine], the IC50 was under 100 nM.
In the case of `CCS(=O)(=O)c1ccc(-c2cccc(F)c2)c(C(=O)N2Cc3cn(-c4cncc(F)c4)nc3C2)c1` [Example 571] it was under 100 nM; in that of `CCS(=O)(=O)c1ccc(-c2cc(F)cc(F)c2)c(C(=O)N2Cc3cn(-c4cncc(F)c4)nc3C2)c1` [Example 572, 3-{5-[2-(3 5-Difluorophenyl)-5-(ethanesulfonyl)benzoyl]-2H 4H 5H 6H-pyrrolo[3,4-c]pyrazol-2-yl}-5-fluoropyridine], 100 to 1000 nM; in that of `CC(Oc1ccc(S(C)(=O)=O)cc1C(=O)N1CCc2n[nH]c(-c3ccccc3)c2C1)C(F)(F)F` (stereo not drawn) [Example 573, 5-{5-Methanesulfonyl-2-[(1 1 1-trifluoropropan-2-yl)oxy]benzoyl}-3-phenyl-2H 4H 5H 6H 7H-pyrazolo[4,3-c]pyridine], 1000 to 10000 nM.
`CC(C)COc1ccc(S(C)(=O)=O)cc1C(=O)N1Cc2cn(-c3ccc(F)cc3)nc2C1` [Example 574, 2-(4-Fluorophenyl)-5-[5-methanesulfonyl-2-(2-methylpropoxy)benzoyl]-2H 4H 5H 6H-pyrrolo[3,4-c]pyrazole]: the IC50 is under 100 nM.
With `COc1c(C#N)ccc(OC(C)C(F)(F)F)c1C(=O)N1CCc2c(cnn2-c2ccc(F)cc2F)C1` (stereo not drawn) [Example 575, 3-[1-(2 4-Difluorophenyl)-1H 4H 5H 6H 7H-pyrazolo[4,3-c]pyridine-5-carbonyl]-2-methoxy-4-[(1 1 1-trifluoropropan-2-yl)oxy]benzonitrile], the IC50 was under 100 nM.
On to `COc1c(C#N)ccc(OC(C)C(F)(F)F)c1C(=O)N1CCc2nn(-c3ccc(F)cc3)c(C(F)(F)F)c2C1` (stereo not drawn) [Example 576, 3-[2-(4-Fluorophenyl)-3-(trifluoromethyl)-2H 4H 5H 6H 7H-pyrazolo[4,3-c]pyridine-5-carbonyl]-2-methoxy-4-[(1 1 1-trifluoropropan-2-yl)oxy]benzonitrile], for which the IC50 was under 100 nM.
Turning to `COc1c(C#N)ccc(OC(C)C(F)(F)F)c1C(=O)N1CCc2c(c(C(F)(F)F)nn2-c2ccc(F)cc2)C1` (stereo not drawn) [Example 577, 3-[1-(4-Fluorophenyl)-3-(trifluoromethyl)-1H 4H 5H 6H 7H-pyrazolo[4,3-c]pyridine-5-carbonyl]-2-methoxy-4-[(1 1 1-trifluoropropan-2-yl)oxy]benzonitrile], the IC50 was 100 to 1000 nM.

For the origin of these results see patent publication US9708334B2, “Substituted 2,4,5,6-tetrahydropyrrolo[3,4-c]pyrazole and 4,5,6,7-tetrahydro-2H-pyrazolo[4,3-c]pyridine compounds as GlyT1 inhibitors” (DART NEUROSCIENCE (CAYMAN) LTD., priority 2014, dated 2017).
